From patent US9693996B1, “Chlorophyll c containing degranulation suppressor” (MARUHA NICHIRO CORPORATION, priority 2011, dated 2017)

Experiments:
[1] = tested on: rat basophile derived cell line RBL-2H3; test: Test for evaluating degranulation suppressing activity (β-hexosaminidase release); assay type: cell-based; conditions: for degranulation suppressing activity (percent degranulation): RBL-2H3 sensitized with anti DNP-IgE, stimulated with DNP-albumin, control group taken as 100%
Procedure: First, the rat basophile derived cell line RBL-2H3 was diluted with a DMEM medium (product of SIGMA) containing 10% fetal bovine serum (hereinafter referred to as FBS) to give a density of 2.5×10^5 cells/ml, dispensed on a 24-well culture plate in a volume of 1 ml/well, and cultured overnight at 37° C. under conditions of 5% CO2 and 100% humidity. After removing the culture supernatant, the cell surfaces were washed with 1 ml/well of a phosphate buffer solution (hereinafter referred to as PBS) and an anti DNP-IgE solution prepared by diluting mouse monoclonal anti-dinitrophenol (product of SIGMA) with a DMEM medium to give a concentration of 50 ng/ml was added in a volume of 500 μl/well, followed by incubation for 2 hours at 37° C. under conditions of 5% CO2 and 100% humidity. After the end of incubation, the anti DNP-IgE solution was removed and washing was done using 1.5 ml/well of a buffer solution containing 137 mM NaCl (product of nacalai tesque), 2.7 mM KCl (JUNSEI CHEMICAL), 1.8 Mm CaCl2.2H2O (JUNSEI CHEMICAL), 1 mM MgCl2. 6H2O (JUNSEI CHEMICAL), 5.6 mM glucose (Wako Pure Chemical Industries), 20 mM HEPES (Wako Pure Chemical Industries) and 0.1% BSA (the buffer solution being a modified Tyrode buffer which is hereinafter referred to as “MT buffer”); this procedure was repeated twice. Next, an MT buffer containing 0.5% of a chlorophyll, i.e., an authentic sample of chlorophyll a (product of DHI), an authentic sample of chlorophyll b (product of DHI), an authentic sample of chlorophyll c2 (product of DHI), or an authentic sample of chlorophyll d (purified from cyanobacteria adhering to surfaces of red algae, by referring to Non-Patent Documents 10 and 11, for example) was added in a volume of 490 μl/well and incubation was conducted for 10 minutes at 37° C. under conditions of 5% CO2 and 100% humidity. To a control group that would not undergo suppression of the degranulation reaction, an MT buffer containing 0.5% ethanol was added. After 10-min incubation, Albumin, dinitrophenyl (product of SIGMA) was added to give a concentration of 200 ng/ml and the mixture was stirred to homogeneity, followed by 30-min incubation at 37° C. under conditions of 5% CO2 and 100% humidity. After the end of incubation, the mixture was ice-cooled for 10 minutes to quench the reaction and 500 μl of the supernatant was recovered. To the cells from which the culture supernatant was recovered, Cell Lysate buffer (product of SIGMA) was added in a volume of 500 μl/well and thereafter an ultrasonic cell disrupter was used to form a homogeneous cell lysate which was recovered in a volume of 500 μl. The culture supernatant and the cell lysate were dispensed on a 96-well plate, each in a volume of 50 μl/well, and incubated at 37° C. for 5 minutes. After the end of incubation, an aqueous solution containing 100 mM citric acid and 3.3 mM p-nitrophenyl-2-acetoamido-2-deoxy-β-D-glucopyranoside (product of Wako Pure Chemical Industries) (the aqueous solution is hereinafter referred to as a “substrate solution”) was added in a volume of 100 μl/well and after thorough mixing, incubation was conducted at 37° C. for 25 minutes. After the end of incubation, an aqueous solution containing 2 M glycine (the aqueous solution is hereinafter referred to as a “reaction quencher”) was added in a volume of 100 μl/well and thorough mixing was conducted to quench the reaction; thereafter, a plate reader was used to measure the absorbance at 405 nm. Through this sequence of reactions, degranulation occurred and the activity of β-hexosaminidase contained in the granules was measured to calculate the proportion of granules released from the cells to the culture supernatant. […]

[2] = tested on: rat basophile derived cell line RBL-2H3; test: Test for evaluating percent cell survival (WST-1); assay type: cell-based; conditions: RBL-2H3, 40 min incubation
Procedure: The rat basophile derived cell line RBL-2H3 diluted to the same concentration as in Example 1 was dispensed on a 96-well culture plate in a volume of 0.1 ml/well and cultured overnight at 37° C. under conditions of 5% CO2 and 100% humidity. After removing the culture supernatant, the cell surfaces were washed with 1 ml/well of PBS and then an MT buffer containing an authentic sample of chlorophyll c2 at the same concentrations by dry weight as in Example 1 was added in a volume of 100 μl/well and incubation was conducted for 40 minutes at 37° C. under conditions of 5% CO2 and 100% humidity. To a control group that would not undergo suppression of the degranulation reaction, an MT buffer containing 0.5% ethanol was added. After 40-min incubation, WST-1 reagent (product of DOJINDO) was added in a volume of […] and the mixture was incubated for 30 minutes at 37° C. under conditions of 5% CO2 and 100% humidity. After the end of incubation, the mixture was left to stand at room temperature for 10 minutes and then the absorbance at 450 nm was measured to evaluate the percent cell survival.

| Structure (SMILES) | degranulation suppressing activity (percent degranulation) [1] | percent cell survival (cytotoxicity) [2] | degranulation suppressing activity (percent degranulation) ([1]; listed as Fr. J) | concentration at which degranulation suppressing activity was already apparent ([1]; by dry weight, RBL-2H3, FIG. 1) |
| --- | --- | --- | --- | --- |
| C=Cc1c(C)c2cc3nc(c4c5[n-]c(cc6nc(cc1[n-]2)C(C)=C6CC)c(C)c5C(=O)[C@@H]4C(=O)OC)[C@@H](CCC(=O)OC/C=C(\C)CCC[C@H](C)CCC[C@H](C)CCCC(C)C)[C@@H]3C.[Mg+2] [chlorophyll a, reference compound] | no degranulation suppressing activity at all |  |  |  |
| C=Cc1c(C)c2[nH]c1=CC1=NC(=CC3=C(C)C4=C([O-])[C@H](C(=O)OC)C(=C5N=C(C=2)C(C)=C5/C=C/C(=O)[O-])C4=N3)C(CC)=C1C.[Mg+2] [chlorophyll c1] | found to exhibit the degranulation suppressing activity | neither the cell group treated with the authentic sample of chlorophyll c1 nor the cell group treated with the authentic sample of chlorophyll c3 was recognized to experience a drop in the percent cell survival |  |  |
| CCC1=C(C)c2cc3[n-]c(cc4nc(c5c6[n-]c(cc1n2)c(C)c6C(=O)[C@@H]5C(=O)OC)[C@@H](CCC(=O)OC/C=C(\C)CCC[C@H](C)CCC[C@H](C)CCCC(C)C)[C@@H]4C)c(C)c3C=O.[Mg+2] [chlorophyll d, reference compound] | no degranulation suppressing activity at all |  |  |  |
| C=Cc1c(C)c2cc3nc(c4c5[n-]c(cc6nc(cc1[n-]2)C(C=O)=C6CC)c(C)c5C(=O)[C@@H]4C(=O)OC)[C@@H](CCC(=O)OC/C=C(\C)CCC[C@H](C)CCC[C@H](C)CCCC(C)C)[C@@H]3C.[Mg+2] [chlorophyll b, reference compound] | no degranulation suppressing activity at all |  |  |  |
| C=CC1=C(C)C2=CC3=NC(=C4C5=NC(=C(C)C5=C([O-])[C@@H]4C(=O)OC)C=c4[nH]c(c(C(=O)OC)c4C=C)=CC1=N2)C(/C=C/C(=O)[O-])=C3C.[Mg+2] [chlorophyll c3] | found to exhibit the degranulation suppressing activity | neither the cell group treated with the authentic sample of chlorophyll c1 nor the cell group treated with the authentic sample of chlorophyll c3 was recognized to experience a drop in the percent cell survival |  |  |
| C=CC1=C(C)C2=NC1=CC1=C(C)C3=C([O-])[C@H](C(=O)OC)C(=C4N=C(C=c5[nH]c(c(C=C)c5C)=C2)C(C)=C4/C=C/C(=O)[O-])C3=N1.[Mg+2] [chlorophyll c2] | exhibit the degranulation suppressing activity in a dose-dependent manner | none of the cell groups treated with the authentic sample of chlorophyll c2 experienced a drop in percent cell survival | found to have the evaluating degranulation suppressing activity | about 0.05 μg/ml |
